Measurements from patent publication US10696687B2, “Pyrazolo fused heterocyclic compounds as ERK inhibitors” (CHANGZHOU JIEKAI PHARMATECH CO., LTD., priority 2015, dated 2020).

What follows are molecules tested on Colon cancer cells (Colo205 cell line) (assay: Colo205 cell proliferation assay (MTT assay, WST-8 readout)). Details: Homo sapiens, COLO 205, 72 hours incubation, absorbance at 450 nm, read-out: Colo 205 cell growth inhibition IC50.
Format: cell-based
Protocol: Compounds disclosed herein were tested for the inhibition of ERK2 by a Colo205 cell proliferation assay commonly known as MTT assay. In this assay, a complete media was prepared by adding 10% fetal bovine serum to RPMI-1640 medium (Life technology). Colon cancer cells (Colo205 cell line) were added to each of 88 wells of a 96 well plate at a seeding density of 5,000 cells/well/90 μL. The cells were allowed to attach to the plate by incubating at 37° C. for 24 hours. The compound was dissolved in DMSO (SIGMA). A solution of test compound was prepared in complete media by serial dilution to obtain the following concentrations: 500 μM, 150 μM, 50 μM, 15 μM, 5 μM, 1.5 μM, 0.5 μM, 0.15 μM and 0.05 μM. The test compound solution (10 μL) was added to each of 80 cell-containing wells. The final concentrations of the compound were following: 50 μM, 15 μM, 5 μM, 1.5 μM, 0.5 μM, 0.15 μM, 0.05 μM, 0.015 μM and 0.005 μM. The final concentration of DMSO is 0.5%. To the 8 remaining cell-containing wells, only complete media (containing 0.5% DMSO) was added to form a control group in order to measure maximal proliferation. To the remaining 8 empty wells, complete media was added to for a vehicle control group in order to measure background. The plates were incubated at 37° C. for 72 hours. 10 μL WST-8 solution (DOJINDO, Cell Counting KIT-8) was added to each well. The plates were further incubated at 37° C. for 2 hours, and then read for the absorbance using a microplate reader at 450 nm.

Structure (SMILES) | IC50 [µM]
CN1C[C@H](NC(=O)c2cnc3[nH]nc(N4CCOCC4)c3c2)[C@@H](c2ccccc2C(F)(F)F)C1 (relative stereo) [Compound 9, trans-N-(1-methyl-4-(2-(trifluoromethyl)phenyl)pyrrolidin-3-yl)-3-morpholino-1H-pyrazolo[3,4-b]pyridine-5-carboxamide] | 0.052 to 10
Cc1cc(-c2n[nH]c3ncc(C(=O)N[C@H]4CN(C)C[C@@H]4c4cccc(Cl)c4)cc23)ccn1 (relative stereo) [Compound 10, trans-N-(4-(3-chlorophenyl)-1-methylpyrrolidin-3-yl)-3-(2-methylpyridin-4-yl)-1H-pyrazolo[3,4-b]pyridine-5-carboxamide] | 0.052 to 10
COc1ncc(-c2n[nH]c3ncc(C(=O)N[C@H]4CN(C)C[C@@H]4c4ccccc4C(F)(F)F)cc23)cn1 (relative stereo) [Compound 17, trans-3-(2-methoxypyrimidin-5-yl)-N-(-1-methyl-4-(2-(trifluoromethyl)phenyl)pyrrolidin-3-yl)-1H-pyrazolo[3,4-b]pyridine-5-carboxamide] | 0.052 to 10
Cc1cc(-c2n[nH]c3ccc(C(=O)N[C@H]4CN(C)C[C@@H]4c4ccccc4F)cc23)ccn1 (relative stereo) [Compound 23, trans-N-(-4-(2-fluorophenyl)-1-methylpyrrolidin-3-yl)-3-(2-methylpyridin-4-yl)-1H-indazole-5-carboxamide] | 0.052 to 10
Cc1cc(-c2n[nH]c3ncc(C(=O)N[C@H]4CN(C)C[C@@H]4c4ccc(F)cc4)cc23)ccn1 (relative stereo) [Compound 24, trans-N-(-4-(4-fluorophenyl)-1-methylpyrrolidin-3-yl)-3-(2-methylpyridin-4-yl)-1H-pyrazolo[3,4-b]pyridine-5-carboxamide] | 0.052 to 10
Cc1cc(-c2n[nH]c3ncc(C(=O)N[C@H]4CN(C)C[C@@H]4c4ccc(F)cc4F)cc23)ccn1 (relative stereo) [Compound 25, trans-N-(-4-(2,4-difluorophenyl)-1-methylpyrrolidin-3-yl)-3-(2-methylpyridin-4-yl)-1H-pyrazolo[3,4-b]pyridine-5-carboxamide] | 0.052 to 10
Cc1cc(-c2n[nH]c3ncc(C(=O)N[C@H]4CN(C)C[C@@H]4c4ccc(F)cc4Cl)cc23)ccn1 (relative stereo) [Compound 28, trans-N-(-4-(2-chloro-4-fluorophenyl)-1-methylpyrrolidin-3-yl)-3-(2-methylpyridin-4-yl)-1H-pyrazolo[3,4-b]pyridine-5-carboxamide] | 0.052 to 10
Cc1cc(-c2n[nH]c3ccc(C(=O)N[C@@H]4CN(C)C[C@H]4c4ccccc4Cl)cc23)ccn1 (relative stereo) [Compound 31, trans-N-(-4-(2-chlorophenyl)-1-methylpyrrolidin-3-yl)-3-(2-methylpyridin-4-yl)-1H-indazole-5-carboxamide] | 0.052 to 10
Cc1cc(-c2n[nH]c3ncc(C(=O)N[C@@H]4C[C@H]4c4ccccc4)cc23)ccn1 (relative stereo) [Compound 36, trans-3-(2-methylpyridin-4-yl)-N-(2-phenylcyclopropyl)-1H-pyrazolo[3,4-b]pyridine-5-carboxamide] | 0.052 to 10
Cc1cc(-c2n[nH]c3ncc(C(=O)N[C@@H]4CN(C)C[C@H]4c4ccccc4)cc23)ccn1 (relative stereo) [Compound 38, Trans-N-(1-methyl-4-phenylpyrrolidin-3-yl)-3-(2-methylpyridin-4-yl)-1H-pyrazolo[3,4-b]pyridine-5-carboxamide] | 0.052 to 10
Cc1cc(-c2n[nH]c3ncc(C(=O)N[C@@H]4C[C@H]4c4ccccc4Cl)cc23)ccn1 (relative stereo) [Compound 40, trans-N-(2-(2-chlorophenyl)cyclo-propyl)-3-(2-methylpyridin-4-yl)-1H-pyrazolo[3,4-b]pyridine-5-carboxamide] | 0.052 to 10
Cc1cc(-c2n[nH]c3ncc(C(=O)N[C@H](CO)c4cccc(Cl)c4)cc23)ccn1 [Compound 1, (S)-N-(1-(3-chlorophenyl)-2-hydroxyethyl)-3-(2-methylpyridin-4-yl)-1H-pyrazolo[3,4-b]pyridine-5-carboxamide] | 0.052 to 10
Cc1cc(-c2n[nH]c3nc(NC(=O)N[C@H](C)c4ccccc4)ccc23)ccn1 [Compound 2, (R)-1-(3-(2-methylpyridin-4-yl)-1H-pyrazolo[3,4-b]pyridin-6-yl)-3-(1-phenylethyl)urea] | 0.052 to 10
Cc1cc(-c2n[nH]c3ncc(NC(=O)N[C@@H](C)c4ccccc4)cc23)ccn1 [Compound 4, (S)-1-(3-(2-methylpyridin-4-yl)-1H-pyrazolo[3,4-b]pyridin-5-yl)-3-(1-phenylethyl)urea] | 0.052 to 10
Cc1cc(-c2n[nH]c3ncc(C(=O)N[C@H]4CCC[C@@H]4c4ccccc4)cc23)ccn1 [Compound 32] | 0.052 to 10

Other lines, results leading:

IC50 [µM] | Structure (SMILES)
0.052 to 10 | Cc1cc(-c2n[nH]c3ncc(C(=O)N[C@@H]4CN(C)C[C@H]4c4ccccc4C(F)(F)F)cc23)ccn1 (racemic) [Compound 3, trans-N-(1-methyl-4-(2-(trifluoromethyl)phenyl)pyrrolidin-3-yl)-3-(2-methylpyridin-4-yl)-1H-pyrazolo[3,4-b]pyridine-5-carboxamide]
0.052 to 10 | COc1cc(-c2n[nH]c3ncc(C(=O)N[C@H]4CN(C)C[C@@H]4c4ccccc4C(F)(F)F)cc23)ccn1 (relative stereo) [Compound 13, trans-3-(2-methoxypyridin-4-yl)-N-(1-methyl-4-(2-(trifluoromethyl)phenyl)pyrrolidin-3-yl)-1H-pyrazolo[3,4-b]pyridine-5-carboxamide]
0.052 to 10 | Cc1cc(-c2n[nH]c3ncc(C(=O)N[C@H]4CN(C)C[C@@H]4c4ccccc4F)cc23)ccn1 (relative stereo) [Compound 16, trans-N-(-4-(2-fluorophenyl)-1-methylpyrrolidin-3-yl)-3-(2-methylpyridin-4-yl)-1H-pyrazolo[3,4-b]pyridine-5-carboxamide]
0.052 to 10 | CCN1C[C@H](NC(=O)c2cnc3[nH]nc(-c4ccnc(C)c4)c3c2)[C@@H](c2ccccc2C(F)(F)F)C1 (relative stereo) [Compound 26, trans-N-(-1-ethyl-4-(2-(trifluoromethyl)phenyl)pyrrolidin-3-yl)-3-(2-methylpyridin-4-yl)-1H-pyrazolo[3,4-b]pyridine-5-carboxamide]
0.052 to 10 | CCCN1C[C@H](NC(=O)c2cnc3[nH]nc(-c4ccnc(C)c4)c3c2)[C@@H](c2ccccc2C(F)(F)F)C1 (relative stereo) [Compound 29, trans-3-(2-methylpyridin-4-yl)-N-(-1-propyl-4-(2-(trifluoromethyl)phenyl)pyrrolidin-3-yl)-1H-pyrazolo[3,4-b]pyridine-5-carboxamide]
0.052 to 10 | Cc1cc(-c2n[nH]c3ncc(C(=O)N[C@@H]4CN(C)C[C@H]4c4ccccc4C(F)(F)F)cc23)ccn1 (single isomer, unassigned) [Compound 14]
0.052 to 10 | Cc1cc(-c2n[nH]c3ncc(C(=O)N[C@H]4CN(C)C[C@@H]4c4ccccc4C(F)(F)F)cc23)ccn1 (single isomer, unassigned) [Compound 15]
0.052 to 10 | CN1C[C@H](NC(=O)c2cnc3[nH]nc(-c4ccnc(C(F)(F)F)c4)c3c2)[C@@H](c2ccccc2C(F)(F)F)C1 (stereo in doubt) [Compound 18, N-(-1-methyl-4-(2-(trifluoromethyl)phenyl)pyrrolidin-3-yl)-3-(2-(trifluoromethyl)pyridin-4-yl)-1H-pyrazolo[3,4-b]pyridine-5-carboxamide]
0.052 to 10 | Cc1cc(-c2n[nH]c3ncc(C(=O)N[C@H]4CNC[C@@H]4c4ccccc4C(F)(F)F)cc23)ccn1 (stereo in doubt) [Compound 19, 3-(2-methylpyridin-4-yl)-N-(-4-(2-(trifluoromethyl)phenyl)pyrrolidin-3-yl)-1H-pyrazolo[3,4-b]pyridine-5-carboxamide]
0.052 to 10 | Cc1cc(-c2n[nH]c3ncc(C(=O)N[C@H]4CN(S(C)(=O)=O)C[C@@H]4c4ccccc4C(F)(F)F)cc23)ccn1 (stereo in doubt) [Compound 20, 3-(2-methylpyridin-4-yl)-N-(-1-(methylsulfonyl)-4-(2-(trifluoromethyl)phenyl)pyrrolidin-3-yl)-1H-pyrazolo[3,4-b]pyridine-5-carboxamide]
0.052 to 10 | Cc1cc(-c2n[nH]c3ncc(C(=O)N[C@@H]4CN(C(C)C)C[C@H]4c4ccccc4C(F)(F)F)cc23)ccn1 [Compound 21, N-((3S,4R)-1-isopropyl-4-(2-(trifluoromethyl)phenyl)pyrrolidin-3-yl)-3-(2-methylpyridin-4-yl)-1H-pyrazolo[3,4-b]pyridine-5-carboxamide]
0.052 to 10 | COCCN1C[C@@H](NC(=O)c2cnc3[nH]nc(-c4ccnc(C)c4)c3c2)[C@H](c2ccccc2C(F)(F)F)C1 [Compound 22, N-((3S,4R)-1-(2-methoxyethyl)-4-(2-(trifluoromethyl)phenyl)pyrrolidin-3-yl)-3-(2-methylpyridin-4-yl)-1H-pyrazolo[3,4-b]pyridine-5-carboxamide]
